Source: patent publication US10471046B2, “Method for treating, preventing, or reducing the risk of skin infection” (Melinta Subsidiary Corp., priority 2014, dated 2019)
Values after ≈ are worked out from the molar mass of the structure shown.

Test system: S. aureus
Assay: Minimum inhibitory concentrations (MICs) for S. aureus of exemplary compounds (Table 2)
Assay type: cell-based
Conditions: Staphylococcus aureus, minimum inhibitory concentrations for S. aureus; read-out: MICs
Summary of the method: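 MICs (μg/mL) against S. aureus come from microtiter-tray dilution susceptibility testing per NCCLS M7-A5, comparing growth with and without compound.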

| SMILES | MIC [µg/mL] |
| --- | --- |
| CC(=O)NC[C@H]1CN(c2ccc(-c3ccc(CNc4ccon4)cc3)c(F)c2)C(=O)O1 [Compound 2050, N-{3-[2-Fluoro-4′-(isoxazol-3-ylaminomethyl)-biphenyl-4-yl]-2-oxo-oxazolidin-5-(S)-ylmethyl}-acetamide] | 0.25 (≈ 0.589 µM) |
| CC(=O)NC[C@H]1CN(c2ccc(-c3ccc(CNCc4cc(Br)no4)cc3)c(F)c2)C(=O)O1 [Compound 4253, N-[3-(4′-{[(3-Bromo-isoxazol-5-ylmethyl)-amino]-methyl}-2-fluoro-biphenyl-4-yl)-2-oxo-oxazolidin-5-(S)-ylmethyl]-acetamide] | 0.5 (≈ 0.966 µM) |
| NC[C@H]1CN(c2ccc(-c3ccc(Cn4cnnn4)cc3)c(F)c2)C(=O)O1 [Compound 1032, 5-(S)-Aminomethyl-3-(2-fluoro-4′-tetrazol-1-ylmethyl-biphenyl-4-yl)-oxazolidin-2-one] | 32 (≈ 86.9 µM) |
| CC(=O)NC[C@H]1CN(c2ccc(-c3ccc(NC(=O)NCCCn4ccnc4)cc3)c(F)c2)C(=O)O1 [Compound 6001, N-(3-{2-Fluoro-4′-[3-(3-imidazol-1-yl-propyl)-ureido]-biphenyl-4-yl}-2-oxo-oxazolidin-5-(S)-ylmethyl)-acetamide] | 16 (≈ 32.4 µM) |
| CC(=O)NC[C@H]1CN(c2ccc(-c3ccc(CNC(=O)[C@H](Cc4ccccn4)NC(=O)OC(C)(C)C)cc3)c(F)c2)C(=O)O1 [Compound 4303, [1-(S)-({4′-[5-(S)-(Acetylamino-methyl)-2-oxo-oxazolidin-3-yl]-2′-fluoro-biphenyl-4-ylmethyl}-carbamoyl)-2-pyridin-2-yl-ethyl]-carbamic acid tert-butyl ester] | 8 (≈ 13.2 µM) |
| CC(=O)NC[C@H]1CN(c2ccc(-c3ccc(C(O)Cc4nnn[nH]4)cc3)c(F)c2)C(=O)O1 (stereo in doubt) [Compound 1060, N-(3-{2-Fluoro-4′-[1-(R)-hydroxy-2-(1H-tetrazol-5-yl)-ethyl]-biphenyl-4-yl}-2-oxo-oxazolidin-5-(S)-ylmethyl)-acetamide] | 64 (≈ 145 µM) |
| CC(=O)NC[C@H]1CN(c2ccc(-c3ccc(C[S+]([O-])Cc4ccccn4)cc3)c(F)c2)C(=O)O1 (stereo partly drawn) [Compound 4217, N-{3-[2-Fluoro-4′-(pyridin-2-ylmethanesulfinylmethyl)-biphenyl-4-yl]-2-oxo-oxazolidin-5-(S)-ylmethyl}-acetamide] | 1 (≈ 2.08 µM) |
| CC(=O)NC[C@H]1CN(c2ccc(-c3ccc(CN4CCCC(F)C4)cc3)c(F)c2)C(=O)O1 (mixture of isomers) [Compound 1096, N-{3-[2-Fluoro-4′-(3-(R/S)-fluoro-piperidin-1-ylmethyl)-biphenyl-4-yl]-2-oxo-oxazolidin-5-(S)-ylmethyl}-acetamide] | 1 |
| CC(=O)NC[C@H]1CN(c2ccc(-c3ccc(Cn4cnc(CO)c4)cc3)c(F)c2)C(=O)O1 [Compound 1050, N-{3-[2-Fluoro-4′-(4-hydroxymethyl-imidazol-1-ylmethyl)-biphenyl-4-yl]-2-oxo-oxazolidin-5-(S)-ylmethyl}-acetamide] | 2 (≈ 4.56 µM) |
| CC(=O)NC[C@H]1CN(c2ccc(-c3ccc(CNNC(=O)c4snnc4C)cc3)c(F)c2)C(=O)O1 [Compound 4271, N-(3-{2-Fluoro-4′-[N′-(4-methyl-[1,2,3]thiadiazole-carbonyl)-hydrazinomethyl]-biphenyl-4-yl}-2-oxo-oxazolidin-5-(S)-ylmethyl)-acetamide] | 0.25 (≈ 0.501 µM) |
| CC(=O)NC[C@H]1CN(c2ccc(-c3ccc(C[S+]([O-])c4ccccn4)cc3)c(F)c2)C(=O)O1 (stereo partly drawn) [Compound 2023, N-{3-[2-Fluoro-4′-(pyridine-2-sulfinylmethyl)-biphenyl-4-yl]-2-oxo-oxazolidin-5-(S)-ylmethyl}-acetamide] | 1 (≈ 2.14 µM) |
| CC(=O)NC[C@H]1CN(c2ccc(-c3ccc(CNC(=O)[C@@H]4C=CCN4)cc3)c(F)c2)C(=O)O1 [Compound 4306, 2,5-Dihydro-1H-pyrrole-2-(S)-carboxylic acid {4′-[5-(S)-(acetylamino-methyl)-2-oxo-oxazolidin-3-yl]-2′-fluoro-biphenyl-4-ylmethyl}-amide] | 2 (≈ 4.42 µM) |
| CC(=O)NC[C@H]1CN(c2ccc(-c3ccc(CN4CCN(CC(N)=O)CC4)cc3)c(F)c2)C(=O)O1 [Compound 1003, 2-(4-{4′-[5-(S)-(Acetylamino-methyl)-2-oxo-oxazolidin-3-yl]-2′-fluoro-biphenyl-4-ylmethyl}-piperazin-1-yl)-acetamide] | 2 (≈ 4.14 µM) |
| CC(=O)NC[C@H]1CN(c2ccc(-c3ccc(CNCc4cnccc4N)cc3)c(F)c2)C(=O)O1 [Compound 4135, N-[3-(4′-{[(4-Amino-pyridin-3-ylmethyl)-amino]-methyl}-2-fluoro-biphenyl-4-yl)-2-oxo-oxazolidin-5-(S)-ylmethyl]-acetamide] | 4 (≈ 8.63 µM) |
| CC(=O)NC[C@H]1CN(c2ccc(-c3ccc(CN(C)Cc4cnc5ccccc5c4)cc3)c(F)c2)C(=O)O1 [Compound 4215, N-(3-{2-Fluoro-4′-[(methyl-quinolin-3-ylmethyl-amino)-methyl]-biphenyl-4-yl}-2-oxo-oxazolidin-5-(S)-ylmethyl)-acetamide] | 0.25 (≈ 0.488 µM) |
| CC(=O)NC[C@H]1CN(c2ccc(-c3ccc(CNCc4cc5ccccc5n4C)cc3)c(F)c2)C(=O)O1 [Compound 4049, N-[3-(2-Fluoro-4′-{[(1-methyl-1H-indol-2-ylmethyl)-amino]-methyl}-biphenyl-4-yl)-2-oxo-oxazolidin-5-(S)-ylmethyl]-acetamide] | 1 (≈ 2 µM) |

| SMILES | MIC [µg/mL] |
| --- | --- |
| CC(=O)NC[C@H]1CN(c2ccc(-c3ccc(CNCc4ccc(Br)cn4)cc3)c(F)c2)C(=O)O1 [Compound 4182, N-[3-(4′-{[(5-Bromo-pyridin-2-ylmethyl)-amino]-methyl}-2-fluoro-biphenyl-4-yl)-2-oxo-oxazolidin-5-(S)-ylmethyl]-acetamide] | 2 (≈ 3.79 µM) |
| CC(=O)NC[C@H]1CN(c2ccc(-c3ccc(Cn4ccnc4)nc3)c(F)c2)C(=O)O1 [Compound 1077, N-{3-[3-Fluoro-4-(6-imidazol-1-ylmethyl-pyridin-3-yl)-phenyl]-2-oxo-oxazolidin-5-(S)-ylmethyl}-acetamide] | 4 (≈ 9.77 µM) |
| CC(=O)NC[C@H]1CN(c2ccc(-c3ccc(CNCCCn4ccnn4)cc3)c(F)c2)C(=O)O1 [Compound 4264, N-(3-{2-Fluoro-4′-[(3-[1,2,3]triazol-1-yl-propylamino)-methyl]-biphenyl-4-yl}-2-oxo-oxazolidin-5-(S)-ylmethyl)-acetamide] | 4 (≈ 8.57 µM) |
| CNCc1cn(Cc2ccc(-c3ccc(N4C[C@H](CNC(C)=O)OC4=O)cc3F)cc2)nn1 [Compound 1012, N-{3-[2-Fluoro-4′-(4-methylaminomethyl-[1,2,3]triazol-1-ylmethyl)-biphenyl-4-yl]-2-oxo-oxazolidin-5-(S)-ylmethyl}-acetamide] | 2 (≈ 4.42 µM) |
| CC(=O)NC[C@H]1CN(c2ccc(-c3ccc(CN4CCN(CC#N)CC4)c(F)c3)c(F)c2)C(=O)O1 [Compound 1005, N-{3-[4′-(4-Cyanomethyl-piperazin-1-ylmethyl)-2,3′-difluoro-biphenyl-4-yl]-2-oxo-oxazolidin-5-(S)-ylmethyl}-acetamide] | 2 (≈ 4.14 µM) |
| CC(=O)NC[C@H]1CN(c2ccc(-c3ccc(CNCCN4CCNC4=O)cc3)c(F)c2)C(=O)O1 [Compound 4114, N-[3-(2-Fluoro-4′-{[2-(2-oxo-imidazolidin-1-yl)-ethylamino]-methyl}-biphenyl-4-yl)-2-oxo-oxazolidin-5-(S)-ylmethyl]-acetamide] | 16 (≈ 34.1 µM) |
| CC(=O)NC[C@H]1CN(c2ccc(-c3ccc(C(=O)NCc4nccs4)cc3)c(F)c2)C(=O)O1 [Compound 4143, 4′-[5-(S)-(Acetylamino-methyl)-2-oxo-oxazolidin-3-yl]-2′-fluoro-biphenyl-4-carboxylic acid (thiazol-2-ylmethyl)-amide] | 1 (≈ 2.13 µM) |
| CC(=O)NC[C@H]1CN(c2ccc(-c3ccc(CNCC4CCC=CO4)cc3)c(F)c2)C(=O)O1 (stereo partly drawn) [Compound 4131, N-[3-(4′-{[(3,4-Dihydro-2H-pyran-2-ylmethyl)-amino]-methyl}-2-fluoro-biphenyl-4-yl)-2-oxo-oxazolidin-5-(S)-ylmethyl]-acetamide] | 1 (≈ 2.21 µM) |
| CC(=O)NC[C@H]1CN(c2ccc(-c3ccc(C(=O)NCc4ccncc4)cc3)c(F)c2)C(=O)O1 [Compound 4102, 4′-[5-(S)-(Acetylamino-methyl)-2-oxo-oxazolidin-3-yl]-2′-fluoro-biphenyl-4-carboxylic acid (pyridin-4-ylmethyl)-amide] | 2 (≈ 4.32 µM) |
| CC(=O)NC[C@H]1CN(c2ccc(-c3ccc(CN4CCC(F)CC4)cc3)c(F)c2)C(=O)O1 [Compound 1094, N-{3-[2-Fluoro-4′-(4-fluoro-piperidin-1-ylmethyl)-biphenyl-4-yl]-2-oxo-oxazolidin-5-(S)-ylmethyl}-acetamide] | 1 (≈ 2.25 µM) |
| CC(=O)NC[C@H]1CN(c2ccc(-c3ccc(CN4CCN(c5ncc(C(F)(F)F)cc5Cl)CC4)cc3)c(F)c2)C(=O)O1 [Compound 1038, N-(3-{4′-[4-(3-Chloro-5-trifluoromethyl-pyridin-2-yl)-piperazin-1-ylmethyl]-2-fluoro-biphenyl-4-yl}-2-oxo-oxazolidin-5-(S)-ylmethyl)-acetamide] | 128 (≈ 211 µM) |
| CC(=O)NC[C@H]1CN(c2ccc(-c3ccc(CN4CCN(C=O)CC4)cc3)c(F)c2)C(=O)O1 [Compound 1006, N-{3-[2-Fluoro-4′-(4-formyl-piperazin-1-ylmethyl)-biphenyl-4-yl]-2-oxo-oxazolidin-5-(S)-ylmethyl}-acetamide] | 0.5 (≈ 1.1 µM) |
| CC(=O)NC[C@H]1CN(c2ccc(-c3ccc(CNC(=O)C4CC4)cc3)c(F)c2)C(=O)O1 [Compound 4319, Cyclopropanecarboxylic acid {4′-[5-(S)-(acetylamino-methyl)-2-oxo-oxazolidin-3-yl]-2′-fluoro-biphenyl-4-ylmethyl}-amide] | 16 (≈ 37.6 µM) |
| CC(=O)NC[C@H]1CN(c2ccc(-c3ccc(Cn4nnc(N)n4)cc3)c(F)c2)C(=O)O1 [Compound 1024, N-{3-[4′-(5-Amino-tetrazol-2-ylmethyl)-2-fluoro-biphenyl-4-yl]-2-oxo-oxazolidin-5-(S)-ylmethyl}-acetamide] | 0.25 (≈ 0.588 µM) |
| CC(=O)NC[C@H]1CN(c2ccc(-c3ccc(CNCc4cc[n+]([O-])cc4)cc3)c(F)c2)C(=O)O1 [Compound 4245, N-[3-(2-Fluoro-4′-{[(1-oxy-pyridin-4-ylmethyl)-amino]-methyl}-biphenyl-4-yl)-2-oxo-oxazolidin-5-(S)-ylmethyl]-acetamide] | 2 (≈ 4.31 µM) |
